These results are taken from ChEMBL document CHEMBL2417533, “Apratoxin H and apratoxin A sulfoxide from the Red Sea cyanobacterium Moorea producens” (J Nat Prod, 2013).

The assay has as its system NCI-H460. In words: Cytotoxicity against human NCI-H460 cells after 48 hrs by MTT assay. It is filed as functional, cell-based. As to conditions: NCI-H460, 48 h. Background: Formazan colour is commonly taken as a measure of viable cells.

The structures appear in SMILES notation.

Take `CC[C@H](C)[C@H]1C(=O)N2CCC[C@H]2C(=O)O[C@H](C(C)(C)C)C[C@@H](C)C[C@H](O)[C@H](C)C2=N[C@@H](/C=C(\C)C(=O)N[C@@H](Cc3ccc(OC)cc3)C(=O)N(C)[C@@H](C)C(=O)N1C)C[S+]2[O-]` (stereo partly drawn): it took 89.9 nM to reach half-maximal inhibition (IC50).

The molecule `CC[C@H](C)[C@H]1C(=O)N2CCCC[C@H]2C(=O)O[C@H](C(C)(C)C)C[C@@H](C)C[C@H](O)[C@H](C)C2=N[C@@H](/C=C(\C)C(=O)N[C@@H](Cc3ccc(OC)cc3)C(=O)N(C)[C@@H](C)C(=O)N1C)CS2` gave an IC50 of 3.4 nM.

Molecule `CC[C@H](C)[C@H]1C(=O)N2CCC[C@H]2C(=O)O[C@H](C(C)(C)C)C[C@@H](C)C[C@H](O)[C@H](C)C2=N[C@@H](/C=C(\C)C(=O)N[C@@H](Cc3ccc(OC)cc3)C(=O)N(C)[C@@H](C)C(=O)N1C)CS2` [APRATOXIN A] registered an IC50 of 2.5 nM.

As a reminder, the IC50 is the concentration that inhibits the measured activity by half. Lower therefore signals higher potency.
